Reference: patent EP4796557A1, “POLYPEPTIDE, BIOACTIVE CONJUGATE, AND PREPARATION METHOD THEREFOR AND USE THEREOF” (priority 2023, dated 2025)
Numbered stars: 1 amine (or outer) side, 2 acyl side, 3 side chain; on linkers, the order of the positions; unused ones are H or OH. Square brackets hold non-standard residues; d marks the D form. Peptide text beside a SMILES is read from it. Cit = NC(=O)NCCC[C@H](N)C(=O)O; X1 = CN(C)CC(N[*:1])C(=O)[*:2]

Key:
MMP2 = biological target: T1, MMP2 (Homo sapiens, UniProt P08253); experiment: Enzymolysis assay of polypeptides by MMP2 (RP-HPLC); assay type: biochemical; conditions: test polypeptide 100 µmol, activated MMP2, 37°C, 4 h
T1 sequence (P08253 110-660): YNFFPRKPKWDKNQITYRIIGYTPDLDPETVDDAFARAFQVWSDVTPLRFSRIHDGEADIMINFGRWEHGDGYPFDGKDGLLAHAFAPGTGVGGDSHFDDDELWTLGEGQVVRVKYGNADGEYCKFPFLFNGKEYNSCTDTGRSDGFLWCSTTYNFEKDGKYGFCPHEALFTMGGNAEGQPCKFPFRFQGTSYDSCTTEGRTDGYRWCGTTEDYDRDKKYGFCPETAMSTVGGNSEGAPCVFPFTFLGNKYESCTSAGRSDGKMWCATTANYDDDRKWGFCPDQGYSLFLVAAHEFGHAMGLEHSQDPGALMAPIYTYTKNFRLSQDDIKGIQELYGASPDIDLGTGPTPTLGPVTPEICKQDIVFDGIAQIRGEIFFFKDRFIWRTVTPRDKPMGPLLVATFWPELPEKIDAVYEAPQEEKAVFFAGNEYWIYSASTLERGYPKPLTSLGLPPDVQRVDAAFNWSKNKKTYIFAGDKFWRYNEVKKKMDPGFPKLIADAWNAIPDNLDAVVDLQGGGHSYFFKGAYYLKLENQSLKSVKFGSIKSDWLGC
Protocol: (§1) First, MMP2 or MMP9 enzyme solution having a final concentration of 200 µg/mL was mixed with 4 mM APMA at a ratio of 1:1, placed in a 37°C water bath and incubated for 24 h to activate the MMP2 or MMP9 enzyme solution. Subsequently, the test polypeptide having a final concentration of 100 µmol was incubated with the activated MMP2 or MMP9 enzyme solution in a 37°C water bath for 4 h. After the reaction was complete, an equal volume of acetonitrile solution was added thereto, followed by RP-HPLC analysis.
(§2) The enzymolysis efficiency of the polypeptide was calculated based on the peak areas of the target peak before and after enzymolysis. The formula is as follows: Enzymolysis efficiency = […] [formula]

MMP9 = MMP9 (Homo sapiens, UniProt P14780); experiment: Enzymolysis assay of polypeptides by MMP9 (RP-HPLC); assay type: biochemical; conditions: polypeptide 100 µmol with activated MMP9, 37°C, 4 h, RP-HPLC peak areas
MMP9, sequence (P14780 107-707 limits assumed, species assumed): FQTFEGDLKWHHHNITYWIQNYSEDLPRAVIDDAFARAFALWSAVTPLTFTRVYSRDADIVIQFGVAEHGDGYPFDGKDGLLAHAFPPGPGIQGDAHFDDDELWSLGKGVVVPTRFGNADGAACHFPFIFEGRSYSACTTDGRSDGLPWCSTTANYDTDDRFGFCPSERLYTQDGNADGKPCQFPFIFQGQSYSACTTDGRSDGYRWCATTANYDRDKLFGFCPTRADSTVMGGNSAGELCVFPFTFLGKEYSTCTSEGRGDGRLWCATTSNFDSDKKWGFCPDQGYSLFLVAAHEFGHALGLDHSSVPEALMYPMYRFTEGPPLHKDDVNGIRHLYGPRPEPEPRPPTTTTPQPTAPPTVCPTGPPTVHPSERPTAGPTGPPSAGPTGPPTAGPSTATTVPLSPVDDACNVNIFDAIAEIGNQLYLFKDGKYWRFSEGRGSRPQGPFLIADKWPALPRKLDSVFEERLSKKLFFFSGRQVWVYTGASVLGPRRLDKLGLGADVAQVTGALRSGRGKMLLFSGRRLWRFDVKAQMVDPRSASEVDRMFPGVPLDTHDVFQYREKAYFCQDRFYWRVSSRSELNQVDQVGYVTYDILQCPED
Protocol: as §1, §2

CC(=O)N[C@@H](Cc1c[nH]cn1)C(=O)N1CCC[C@H]1C(=O)N[C@@H](CCCNC(=N)N)C(=O)N[C@@H](CC(N)=O)C(=O)N[C@@H](CC(C)C)C(=O)N[C@H](C(=O)N[C@@H](CCCNC(N)=O)C(N)=O)C(C)C [Compound 2-P15] (Ac-HPRNLV[Cit]-NH2)
Enzymolysis efficiency (%) (MMP2): 63.27%
Enzymolysis efficiency (%) (MMP9): 94.69%

CC(=O)N[C@@H](Cc1c[nH]cn1)C(=O)N1CCC[C@H]1C(=O)N[C@@H](CCCNC(N)=O)C(=O)NCC(=O)N[C@@H](CC(C)C)C(=O)N[C@H](C(=O)N[C@@H](CCCNC(N)=O)C(N)=O)C(C)C [Compound 2-P16] (Ac-HP[Cit]GLV[Cit]-NH2)
Enzymolysis efficiency (%) (MMP2): 53.54%
Enzymolysis efficiency (%) (MMP9): 64.81%

CC(=O)N[C@@H](Cc1c[nH]cn1)C(=O)N1CCC[C@H]1C(=O)N[C@@H](CCCNC(N)=O)C(=O)N1CCC[C@H]1C(=O)N[C@@H](CC(C)C)C(=O)N[C@H](C(=O)N[C@@H](CCCNC(N)=O)C(N)=O)C(C)C [Compound 2-P17] (Ac-HP[Cit]PLV[Cit]-NH2)
Enzymolysis efficiency (%) (MMP2): 42.87%
Enzymolysis efficiency (%) (MMP9): 48.98%

CC(=O)N[C@@H](CO)C(=O)N1CCC[C@H]1C(=O)N[C@@H](CCCNC(=N)N)C(=O)NCC(=O)N[C@@H](CC(C)C)C(=O)N[C@H](C(=O)N[C@@H](CCCNC(N)=O)C(N)=O)C(C)C [Compound 2-P18] (Ac-SPRGLV[Cit]-NH2)
Enzymolysis efficiency (%) (MMP2): 86.03%
Enzymolysis efficiency (%) (MMP9): 93.84%

CC(=O)N[C@@H](CO)C(=O)N1CCC[C@H]1C(=O)N[C@@H](CCCNC(=N)N)C(=O)N[C@@H](CO)C(=O)N[C@@H](CC(C)C)C(=O)N[C@H](C(=O)N[C@@H](CCCNC(N)=O)C(N)=O)C(C)C [Compound 2-P19] (Ac-SPRSLV[Cit]-NH2)
Enzymolysis efficiency (%) (MMP2): 55.76%
Enzymolysis efficiency (%) (MMP9): 79.26%

CC(=O)N[C@@H](CO)C(=O)N1CCC[C@H]1C(=O)N[C@@H](CCCNC(=N)N)C(=O)N1CCC[C@H]1C(=O)N[C@@H](CC(C)C)C(=O)N[C@H](C(=O)N[C@@H](CCCNC(N)=O)C(N)=O)C(C)C [Compound 2-P20] (Ac-SPRPLV[Cit]-NH2)
Enzymolysis efficiency (%) (MMP2): 52.52%
Enzymolysis efficiency (%) (MMP9): 57.87%

CC(=O)N[C@@H](CO)C(=O)N1CCC[C@H]1C(=O)N[C@@H](CCCNC(=N)N)C(=O)N[C@@H](CC(N)=O)C(=O)N[C@@H](CC(C)C)C(=O)N[C@H](C(=O)N[C@@H](CCCNC(N)=O)C(N)=O)C(C)C [Compound 2-P21] (Ac-SPRNLV[Cit]-NH2)
Enzymolysis efficiency (%) (MMP2): 70.46%
Enzymolysis efficiency (%) (MMP9): 95.84%

CC(=O)N[C@@H](CO)C(=O)N1CCC[C@H]1C(=O)N[C@@H](CCCNC(N)=O)C(=O)NCC(=O)N[C@@H](CC(C)C)C(=O)N[C@H](C(=O)N[C@@H](CCCNC(N)=O)C(N)=O)C(C)C [Compound 2-P22] (Ac-SP[Cit]GLV[Cit]-NH2)
Enzymolysis efficiency (%) (MMP2): 55.25%
Enzymolysis efficiency (%) (MMP9): 73.74%

CC(=O)N[C@@H](CO)C(=O)N1CCC[C@H]1C(=O)N[C@@H](CCCNC(N)=O)C(=O)N[C@@H](CO)C(=O)N[C@@H](CC(C)C)C(=O)N[C@H](C(=O)N[C@@H](CCCNC(N)=O)C(N)=O)C(C)C [Compound 2-P23] (Ac-SP[Cit]SLV[Cit]-NH2)
Enzymolysis efficiency (%) (MMP2): 33.63%
Enzymolysis efficiency (%) (MMP9): 59.39%

CC(=O)N[C@@H](CO)C(=O)N1CCC[C@H]1C(=O)N[C@@H](CCCNC(N)=O)C(=O)N1CCC[C@H]1C(=O)N[C@@H](CC(C)C)C(=O)N[C@H](C(=O)N[C@@H](CCCNC(N)=O)C(N)=O)C(C)C [Compound 2-P24] (Ac-SP[Cit]PLV[Cit]-NH2)
Enzymolysis efficiency (%) (MMP2): 45.97%
Enzymolysis efficiency (%) (MMP9): 38.72%

CC(=O)NCC(=O)N1CCC[C@H]1C(=O)N[C@@H](C)C(=O)N1CCC[C@H]1C(=O)N[C@@H](CC(C)C)C(=O)N[C@H](C(=O)N[C@@H](CCCNC(N)=O)C(N)=O)C(C)C [Compound 2-P25] (Ac-GPAPLV[Cit]-NH2)
Enzymolysis efficiency (%) (MMP2): 85.08%
Enzymolysis efficiency (%) (MMP9): 45.37%

CC(=O)NCC(=O)N1CCC[C@H]1C(=O)N[C@@H](C)C(=O)N[C@@H](CC(N)=O)C(=O)N[C@@H](CC(C)C)C(=O)N[C@H](C(=O)N[C@@H](CCCNC(N)=O)C(N)=O)C(C)C [Compound 2-P26] (Ac-GPANLV[Cit]-NH2)
Enzymolysis efficiency (%) (MMP2): 100.00%
Enzymolysis efficiency (%) (MMP9): 84.35%

CC(=O)NCC(=O)N1CCC[C@H]1C(=O)N[C@@H](CCCNC(=N)N)C(=O)NCC(=O)NC(CN(C)C)C(=O)N[C@H](C(=O)N[C@@H](CCCNC(N)=O)C(N)=O)C(C)C (some centres unmarked) [Compound 2-P27] (Ac-GPRG[X1]V[Cit]-NH2)
Enzymolysis efficiency (%) (MMP2): 9.00%
Enzymolysis efficiency (%) (MMP9): 10.53%

Ac-GPAALGGFG-NH2 [Compound 1-P24]
Enzymolysis efficiency (%) (MMP2): 96.89%
Enzymolysis efficiency (%) (MMP9): 37.13%

Ac-GPAGLGGFG-NH2 [Compound 1-P19]
Enzymolysis efficiency (%) (MMP2): 89.82%
Enzymolysis efficiency (%) (MMP9): 29.28%

Ac-GPASLGGFG-NH2 [Compound 1-P18]
Enzymolysis efficiency (%) (MMP2): 68.38%
Enzymolysis efficiency (%) (MMP9): 9.10%

Ac-GPLGLGGFG-NH2 [Compound 1-P21]
Enzymolysis efficiency (%) (MMP2): 90.43%
Enzymolysis efficiency (%) (MMP9): 75.60%

Ac-GPLSLGGFG-NH2 [Compound 1-P17]
Enzymolysis efficiency (%) (MMP2): 37.27%
Enzymolysis efficiency (%) (MMP9): 27.26%

Ac-GPQGLGGFG-NH2 [Compound 1-P20]
Enzymolysis efficiency (%) (MMP2): 51.36%
Enzymolysis efficiency (%) (MMP9): 32.62%

Ac-GPRGLGGFG-NH2 [Compound 1-P23]
Enzymolysis efficiency (%) (MMP2): 89.54%
Enzymolysis efficiency (%) (MMP9): 84.66%

Ac-GPSALGGFG-NH2 [Compound 1-P25]
Enzymolysis efficiency (%) (MMP2): 83.12%
Enzymolysis efficiency (%) (MMP9): 38.53%

Ac-GPSGLGGFG-NH2 [Compound 1-P22]
Enzymolysis efficiency (%) (MMP2): 82.72%
Enzymolysis efficiency (%) (MMP9): 37.81%

Ac-HVLNLGGFG-NH2 [Compound 1-P14]
Enzymolysis efficiency (%) (MMP2): 11.78%
Enzymolysis efficiency (%) (MMP9): 4.86%

Ac-IPVSLGGFG-NH2 [Compound 1-P16]
Enzymolysis efficiency (%) (MMP2): 13.02%
Enzymolysis efficiency (%) (MMP9): 13.30%

Ac-VPLSLGGFG-NH2 [Compound 1-P15]
Enzymolysis efficiency (%) (MMP2): 40.90%
Enzymolysis efficiency (%) (MMP9): 33.25%
